Where two headings read alike, the source gives them in different places.
Experiments:
[1] = target: T1, oxytocin receptors (Rattus norvegicus, UniProt P70536); assay: Oxytocin Receptor Binding; details: for IC50: rat uterine membranes, [3H]oxytocin
T1 sequence (P70536 1-388): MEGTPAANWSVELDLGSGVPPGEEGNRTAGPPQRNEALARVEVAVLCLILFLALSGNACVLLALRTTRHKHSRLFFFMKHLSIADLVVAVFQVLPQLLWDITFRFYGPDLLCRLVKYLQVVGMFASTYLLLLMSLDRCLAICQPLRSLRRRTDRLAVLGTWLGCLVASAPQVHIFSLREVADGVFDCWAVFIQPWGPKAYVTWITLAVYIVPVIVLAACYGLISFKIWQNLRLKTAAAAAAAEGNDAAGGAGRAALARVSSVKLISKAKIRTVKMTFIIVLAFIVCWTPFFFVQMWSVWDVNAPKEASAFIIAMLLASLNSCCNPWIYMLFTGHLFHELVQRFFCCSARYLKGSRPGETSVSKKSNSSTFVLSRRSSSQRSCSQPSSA

[2] = target: T2, Rat Kidney Medullary V2 Receptors (Rattus norvegicus, UniProt Q00788); assay: biochemical; type: binding
T2 construct: Medullary tissues from rat kidneys are dissected out; from tissue; host or cells: rat kidney medulla membranes
T2 sequence (Q00788 whole entry): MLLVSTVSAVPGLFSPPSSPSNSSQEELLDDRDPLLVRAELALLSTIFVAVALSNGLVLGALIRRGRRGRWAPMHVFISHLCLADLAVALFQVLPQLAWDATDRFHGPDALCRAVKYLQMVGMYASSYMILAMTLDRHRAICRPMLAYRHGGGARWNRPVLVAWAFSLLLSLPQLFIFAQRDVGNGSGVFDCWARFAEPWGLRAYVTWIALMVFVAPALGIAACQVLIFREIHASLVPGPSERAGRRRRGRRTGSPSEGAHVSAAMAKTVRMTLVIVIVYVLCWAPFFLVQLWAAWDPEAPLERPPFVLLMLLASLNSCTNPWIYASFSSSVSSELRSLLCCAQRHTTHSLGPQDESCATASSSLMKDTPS
Experimental: Binding Assay to Rat Kidney Medullary V2 Receptors
Medullary tissues from rat kidneys are dissected out, cut into small pieces and soaked in a […] sodium chloride solution containing 1.0 mM EDTA with many changes of the liquid phase, until the solution is clear of blood. The tissue is homogenized in a 0.25M sucrose solution containing 1.0 mM EDTA and 0.1 mM PMSF using a Potter-Elvehjem homogenizer with a teflon pestle. The homogenate is filtered through several layers (4 layers) of cheese cloth. The filtrate is rehomogenized using a dounce homogenizer, with a tight fitting pestle. The final homogenate is centrifuged at 1500×g for 15 min. The nuclear pellet is discarded and the supernatant fluid recentrifuged at 40,000×g for 30 min. The resulting pellet formed contains a dark inner part with the exterior, slightly pink. The pink outer part is suspended in a small amount of 50.0 mM Tris.HCl buffer, pH 7.4. The protein content is determined by the Lowry's method (Lowry et al, J. Biol. Chem., 1953). The membrane suspension is stored at -70° C., in 50.0 mM Tris.HCl, containing 0.2% inactivated BSA and 0.1 mM PMSF in aliquots of 1.0 ml containing 10.0 mg protein per ml of suspension until use in subsequent binding experiments.
(§1) For binding experiments, the following is added in μl volume to wells of a 96 well format of a microtiter plate: 100.0 μl of 100.0 mM Tris.HCl buffer containing 0.2% heat inactivated BSA, 10.0 mM MgCl2 and a mixture of protease inhibitors: leupeptin, 1.0 mg %; aprotinin, 1.0 mg %; 1,10-phenanthroline, 2.0 mg %; trypsin inhibitor, 10.0 mg % and 0.1 mM PMSF, 20.0 μl of [^3 H] Arginine^8, vasopressin (S.A. 75.0 Ci/mmole) at 0.8 nM and the reaction initiated by the addition of 80.0 μl of tissue membranes (200.0 μg tissue protein). The plates are left undisturbed on the bench top for 120 min. to reach equilibrium. Non-specific binding is assessed in the presence of 1.0 μM of unlabeled ligand, added in 20 μl volume. For test compounds, these are solubilized in 50% dimethylsulfoxide (DMSO) and added in 20.0 μl volume to a final incubation volume of 200 μl. Upon completion of binding, the content of each well is filtered off, using a Brandel® cell Harvester (Gaithersburg, Md.). The radioactivity trapped on the filter disk by the ligand-receptor complex is assessed by liquid scintillation counting in a Packard LS Counter, with an efficiency of 65% for tritium. The data are analyzed for IC50 values by the LUNDON-2 program for competition (LUNDON SOFTWARE, Ohio).

[3] = target: Rat Hepatic V1 Receptors (Rattus norvegicus, UniProt P30560); assay: Binding Assay to Rat Hepatic V1 Receptors
Chain of Rat Hepatic V1 Receptors (P30560 whole entry): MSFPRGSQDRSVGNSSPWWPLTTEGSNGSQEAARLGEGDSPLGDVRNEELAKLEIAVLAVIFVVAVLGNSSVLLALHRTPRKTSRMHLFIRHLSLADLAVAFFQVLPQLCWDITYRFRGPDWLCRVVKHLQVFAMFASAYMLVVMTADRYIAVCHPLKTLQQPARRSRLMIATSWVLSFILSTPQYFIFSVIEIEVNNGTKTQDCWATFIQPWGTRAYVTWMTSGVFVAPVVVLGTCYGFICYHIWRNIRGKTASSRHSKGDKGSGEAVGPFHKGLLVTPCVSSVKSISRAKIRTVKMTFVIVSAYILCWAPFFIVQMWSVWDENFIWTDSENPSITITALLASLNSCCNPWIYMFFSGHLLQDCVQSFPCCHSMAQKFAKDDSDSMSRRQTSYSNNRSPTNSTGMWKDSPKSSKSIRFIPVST
Experimental: Binding Assay to Rat Hepatic V1 Receptors
Rat liver plasma membranes expressing the vasopressin V1 receptor subtypes are isolated by sucrose density gradient according to the method described by Lesko et al, (1973). These membranes are quickly suspended in 50.0 mM Tris.HCl buffer, pH 7.4, containing 0.2% bovine serum albumin (BSA) and 0.1 mM phenylmethylsulfonylfluoride (PMSF) and kept frozen at -70° C. until used in subsequent binding experiments. For binding experiments, the following is added to the wells of a ninety-six well format microtiter plate: 100 μl of 100.0 mM Tris.HCl buffer containing 10.0 mM MgCl2, 0.2% heat inactivated BSA and a mixture of protease inhibitors: leupeptin, 1.0 mg %; aprotinin, 1.0 mg %; 1,10-phenanthroline,2.0 mg %; trypsin inhibitor, 10.0 mg % and 0.1 mM PMSF, 20.0 μl of [phenylalanyl-3,4,5,-^3 H] vaso-pressin (S.A. 45.1 Ci/mmole) at 0.8 nM, and the reaction initiated by the addition of 80 μl of tissue membranes containing 20 μg of tissue protein. The plates are kept undisturbed on the bench top at room temperature for 120 min. to reach equilibrium. Non-specific samples are assayed in the presence of 0.1 μm of the unlabeled antagonist phenylalanylvasopressin, added in 20.0 μl volume. For test compounds, these are solubilized in 50% dimethylsulfoxide (DMSO) and added in 20.0 μl volume to a final incubation volume of 200 μl. Upon completion of binding, the content of each well is filtered off, using a Brandel® cell Harvester (Gaithersburg, Md.). The radioactivity trapped on the filter disk by the ligand-receptor complex is assessed by liquid scintillation counting in a Packard LS Counter, with an efficiency of 65% for tritium. The data are analyzed for IC50 values by the LUNDON-2 program for competition (LUNDON SOFTWARE, Ohio).

[4] = target: T3, Human V2 Vasopressin Receptor (Homo sapiens, UniProt P30518); assay: Binding to Membranes of Mouse Fibroblast Cell Line (LV-2) Transfected with the cDNA Expressing the Human V2 Vasopressin Receptor
T3 construct: expressed in transfected cells; host or cells: mouse fibroblast cell line LV-2
T3 sequence (P30518 whole entry): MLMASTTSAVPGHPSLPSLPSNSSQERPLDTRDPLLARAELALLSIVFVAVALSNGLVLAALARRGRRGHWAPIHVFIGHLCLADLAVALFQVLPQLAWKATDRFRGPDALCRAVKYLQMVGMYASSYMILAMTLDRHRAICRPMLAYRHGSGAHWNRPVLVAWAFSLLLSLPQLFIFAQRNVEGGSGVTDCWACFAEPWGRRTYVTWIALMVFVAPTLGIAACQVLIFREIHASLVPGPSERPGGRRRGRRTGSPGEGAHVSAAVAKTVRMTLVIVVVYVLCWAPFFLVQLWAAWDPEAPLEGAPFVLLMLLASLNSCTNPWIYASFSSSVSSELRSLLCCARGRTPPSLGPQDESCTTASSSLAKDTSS
Experimental: Binding to Membranes of Mouse Fibroblast Cell Line (LV-2) Transfected with the cDNA Expressing the Human V2 Vasopressin Receptor Membrane Preparation
Flasks of 175 ml capacity, containing attached cells grown to confluence, are cleared of culture medium by aspiration. The flasks containing the attached cells are rinsed with 2×5 ml of phosphate buffered saline (PBS) and the liquid aspirated off each time. Finally, 5 ml of an enzyme free dissociation Hank's based solution (Specialty Media, Inc., Lafayette, N.J.) is added and the flasks are left undisturbed for 2 min. The content of all flasks is poured into a centrifuge tube and the cells pelleted at 300×g for 15 min. The Hank's based solution is aspirated off and the cells homogenized with a polytron at setting #6 for 10 sec in 10.0 mM Tris.HCl buffer, pH 7.4 containing 0.25M sucrose and 1.0 mM EDTA. The homogenate is centrifuged at 1500×g for 10 min to remove ghost membranes. The supernatant fluid is centrifuged at 100,000×g for 60 min to pellet the receptor protein. Upon completion, the pellet is resuspended in a small volume of 50.0 mM Tris.HCl buffer, pH 7.4. The protein content is determined by the Lowry method and the receptor membranes are suspended in 50.0 mM Tris.HCl buffer containing 0.1 mM phenylmethylsulfonylfluoride (PMSF) and 0.2% bovine serum albumin (BSA) to give 2.5 mg receptor protein per ml of suspension.
as §1, with “min” for “min.”, “Non specific” for “Non-specific”, “μm” for “μM”

[5] = tested on: Endogenous Arginine Vasopressin Antidiuretic (V2) Response in Conscious Rats; assay: Antagonism of Endogenous Arginine Vasopressin Antidiuretic (V2) Response in Conscious Rats (urine volume); type: in vivo, rat (Sprague-Dawley); details: 10 mg/kg rat p.o.; 4 hour collection
Excerpt: Effects on the Antagonism of Endogenous Arginine Vasopressin Antidiuretic (V2) Response in Conscious Rats with Free Access to Water Drinking Before but not During the Experiment:
Male or female normotensive Sprague-Dawley rats (Charles River Laboratories, Inc., Kingston, N.Y.) of 400-450 g body weight were supplied with Laboratory Rodent Feed #5001 (PMI Feeds, Inc., Richmond, Id.) and water ad libitum. On the day of test, rats were placed individually into metabolic cages equipped with stainless steel screens (to separate the feces from the urine) and funnels for collection of urine. Vehicle or reference agent was given at various oral doses. During the test, rats were not provided with water or food. Urine was collected for four hours after dosing of the test compound. At the end of four hours, urine volume was measured. Urinary osmolality was determined using a Fiske One-Ten Osmometer (Fiske Associates, Norwood, Mass. 02062) or an Advanced CRYOMATIC Osmometer, Model 3C2 (Advanced Instruments, Norwood, Mass.). Determinations of Na^+, K^+ and Cl^- ion were carried out using ion specific electrodes in a Beckman SYNCHRON EL-ISE Electrolyte System analyzer. In the following results, increased urine volume and decreased osmolality relative to AVP-control indicates activity.

Row | SMILES | IC50 [1] | IC50 [2] | IC50 [3] | inhibition at 10 µM [1] | Urine Volume [5] | further results
1 | O=C(Nc1ccc(C(=O)N2Cc3cccn3Cc3ccccc32)cn1)c1ccc(F)cc1Cl [Example 9] | 170 nM | 1.1 nM | 6 nM | – | – | inhibition at 2.5 µM ([1]; dose 2.5 μM): 96%; IC50 ([4]; ** LV-2 cells transfected with human V2 receptor cDNA, read-out: V2 IC50 (**human V2 receptor)): 0.9 nM
2 | CC(C)(Oc1ccc(Cl)cc1)C(=O)Nc1ccc(C(=O)N2Cc3cccn3Cc3ccccc32)cc1 [Example 347, N-[4-(5H-Pyrrolo[2,1-c][1,4]benzodiazepin-10(11H)-ylcarbonyl)phenyl]-2-methyl-2-(4-chlorophenyloxy)propionamide] | – | 420 nM | 180 nM | 86% | – | –
3 | CC(C)(C)Nc1ccc(C(=O)N2Cc3cccn3Cc3ccccc32)cn1 [Example 348] | 710 nM | – | 80 nM | 95% | – | inhibition at 1 µM ([2]; at 1 μM): 43%
4 | O=C(c1ccc(NC2CCc3ccccc32)nc1)N1Cc2cccn2Cc2ccccc21 (centres unmarked) [Example 350, 10-[[6-(1-Indanylamino)-3-pyridinyl)carbonyl]-10,11-dihydro-5H-pyrrolo[2,1-c][1,4]benzodiazepine] | 205 nM | 34 nM | 15 nM | 95% | – | –
5 | O=C(c1ccc(NCc2ccccc2Br)nc1)N1Cc2cccn2Cc2ccccc21 [Example 352] | 105 nM | 59 nM | 88 nM | – | – | inhibition at 1.25 µM ([1]; dose 1.25 μM): 96%
6 | CN(C)Cc1ccc2n1Cc1ccccc1N(C(=O)c1ccc(NC(=O)c3ccccc3-c3ccccc3)cc1O)C2 [Example 372] | – | – | – | – | 30.3 ml/4 hrs | IC50 ([4]; LV-2 cells transfected with human V2 receptor cDNA, Table 5, read-out: Vasopressin Binding Human V2 Receptor): 15.9 nM
7 | O=C(Nc1ccc(C(=O)N2Cc3ccc(CN4CCC(N5CCCCC5)CC4)n3Cc3ccccc32)c(Cl)c1)c1ccccc1-c1ccccc1 [Example 373, [4-(3-[1,4]Bipiperidinyl-1'-ylmethyl-5H,11H-pyrrolo[2,1-c][1,4]benzodiazepine-10-carbonyl)-3-chloro-phenyl]-biphenyl-2-carboxylic acid amide] | – | – | – | – | 15.6 ml/4 hrs | –
8 | O=C(Nc1ccc(C(=O)N2Cc3ccc(CNC(CO)(CO)CO)n3Cc3ccccc32)c(Cl)c1)c1ccccc1-c1ccccc1 [Example 374, (3-Chloro-4-{3-[(2-hydroxy-1,1-bis-hydroxymethylethylamino)-methyl]-5H,11H-pyrrolo[2,1-c][1,4]benzodiazepine-10-carbonyl}-phenyl)-biphenyl-2-carboxylic acid amide] | – | – | – | – | 16.5 ml/4 hrs | –
9 | CN(C)CCN(C)Cc1ccc2n1Cc1ccccc1N(C(=O)c1ccc(NC(=O)c3ccccc3-c3ccccc3)cc1Cl)C2 [Example 375] | – | – | – | – | 44.2 ml/4 hrs | –
10 | CN(C)C1CCN(Cc2ccc3n2Cc2ccccc2N(C(=O)c2ccc(NC(=O)c4ccccc4-c4ccccc4)cc2Cl)C3)CC1 [Example 376, {3-chloro-4-[3-(4-dimethylamino-piperidine-1-ylmethyl)-5H,11H-pyrrolo[2,1-c][1,4]benzodiazepine-10-carbonyl]-phenyl}-biphenyl-2-carboxylic acid amide] | – | – | – | – | 23.8 ml/4 hrs | –

Reference: patent publication US5753648A, “Tricyclic benzazepine vasopressin antagonists” (American Cyanamid Company, priority 1996, dated 1998)
